Results as given in patent publication US20050256040A1, “Artificially designed pore-forming proteins with anti-tumor effects” (Buck Institute, priority 2004, published 2005).
Entries after “also recorded” stand apart in the source; their conditions may differ. Read-outs that look alike come from different tables or passages of the source.

Key:
KS1767 cells [1] = assay: Matrigel / polymeric fibronectin assay of cell viability; format: cell-based, human; conditions: for effect on KS1767 cell layer: regardless of the presence of matrigel
Experimental: To determine the mechanisms responsible for selective anti-tumor activity of SGP in vivo, a matrigel assay (to mimic extracellular matrix) was developed. Cell viability was determined by morphology (see Ellerby, et al. (1999) supra.; and Ellerby, et al. (1997) supra.). KS1767 cells were incubated with SGP at 1 mM in the presence or absence of matrigel or polymeric fibronectin (sFN). The fibronectin polymer was produced as previously described (see Pasqualini, et al. (1996) Nature Med. 2, 1197-1203). Briefly, cell culture medium was aspirated from adherent cells. Cells were then coated with matrigel (gently pipetted on each well to completely coat the entire cell layer), or the fibronectin polymer, and incubated at 37° C. for 10 min. SGP was added and the cells were viewed on an inverted microscope (Nikon TE 300). KS1767 cells were also exposed to doxorubicin (20 μg/well) or SGP in the presence or absense of matrigel for 24 h. Cell viability (%) was evaluated after no treatment (medium or matrigel alone), incubation with SGP or doxorubicin. Cell death was evaluated morphologically (see Ellerby, et al. (1999) supra.; and Ellerby, et al. (1997) supra.), and cell viability was compared relative to untreated controls (no matrigel) or absence of SGP.

[2] = test system: human MDA-MB-435-derived breast carcinoma xenografts; assay: Anti-tumor activity, MDA-MB-435 breast carcinoma xenografts in nude mice; format: in vivo, nude/nude Balb/c mice; conditions: for tumor appearance: 4 weekly treatments at 40 μl/week, starting volume 100 mm^3
Experimental: (§1) MDA-MB-435-, KS1767-, PC-3-, and H358-derived human tumor xenografts were established in 2-month-old female or male (according to the tumor type), nude/nude Balb/c mice (Jackson Labs, Bar Harbor, Me.) by administering […] per mouse in a 200 μl volume of serum-free Dulbecco's modified Eagle's medium into the mammary fat pad or on the flank (see Ellerby, et al. (1999) Nat. Med. 5, 1032-1038). The mice were anesthetized with Avertin as described (see Ellerby, et al. (1999) supra.). SGP was administered directly into the center of the tumor mass at a concentration of 100 μM or 1 mM given slowly in 5 μl increments, for a total volume of 40 μl. Measurements of tumors were taken by caliper under anesthesia and used to calculate tumor volume (see Ellerby, et al. (1999) supra.). Animal experimentation was reviewed and approved by the Institutional Animal Care and Use Committee.
In the first set of experiments, tumors were allowed to form after injection of a breast carcinoma cell line (MDA-MD-435) and then treated with local injections of SGP. […] Starting tumor volumes ranged from about 100 mm^3 to large sizes of about 600 mm^3. Tumor-bearing mice were given four weekly treatments of PBS, or 100 μM or 1 mM SGP (40 μl/treatment given in 5 μl increments). After a 4-week period without treatment, the tumor volumes were measured at 8 weeks. The average tumor volume at the end of the experiment in the SGP-treated groups was […] than the average volume seen in the PBS-treated group (FIG. 3A). There was no difference between the average tumor volumes of the 2 SGP treatment groups. Mice treated with SGP remained tumor-free for up to 4 months after tumor implantation, before being euthanized for histological evaluation. These observations indicate that both primary tumor growth (FIG. 4) and metastases were inhibited. […] By successfully treating a large number of mice and testing the effects of SGP on several different tumor xenograft models (including carcinomas, sarcomas, and melanomas), the therapeutic properties of SGP were firmly established. […] It was also evaluated whether SGP produced adverse side effects such as necrosis when injected under normal skin.
MDA-MB-435-derived breast carcinoma and KS1767-derived Kaposi sarcoma xenografts and organs were removed, fixed in Bouin solution, embedded in paraffin for preparation of tissue sections, and stained with hematoxylin and eosin (see Ellerby, et al. (1999) supra.).

[3] = Cell viability LC50, 293 cells; format: cell-based; conditions: human, 293 cells (human kidney cells)
Experimental: (§2) To evaluate the effects of SGP on cell membranes multiple human cell lines of different origins were treated (see Table I, which presents a comparison of LC50 data for SGP, SGP-L, and SGP-E on a variety of cultured human cell types).
(§3) Cell viability was determined by morphology (see Ellerby, et al. (1999) Nat. Med. 5, 1032-1038; and Ellerby, et al. (1997) J. Neurosci. 17, 6165-6178). For viability assays, KS1767 cells were incubated with the concentrations of SGP, SGP-L, SGP-E, or control peptides indicated in the figures and in Table I. Briefly, at the given time points, cell culture medium was aspirated from adherent cells. Cells were then gently washed once with PBS at 37° C. A 20-fold dilution of the dye mixture (100 μg/ml acridine orange and 100 μg/ml ethidium bromide) in PBS was then gently pipetted on the cells and viewed on an inverted microscope (Nikon TE 300). […] Percent viability was calculated relative to untreated cells.

[4] = test system: human PC3-derived prostate carcinoma xenografts; assay: Anti-tumor activity, PC-3 prostate carcinoma xenografts in nude mice; format: in vivo, nude/nude Balb/c mice; conditions: PC-3 tumors, 10 weeks
Source text: (§4) Data are shown for human PC3-derived prostate carcinoma and H358 lung carcinoma. Tumor cells were implanted on the flank at the start of the experiments. Mice were divided in similar groups based on matched tumor volumes at the start of the experiment (open circles).
as §1

normal skin = assay: Skin toxicity in nude mice; format: in vivo; conditions: 100 μM, injected sub-cutaneously or intradermally under normal skin
Experimental: 2-month-old female nude mice (Jackson Labs) were anesthetized with Avertin. 10 μl of 100 μM SGP or PBS was injected into the skin. The injected areas were monitored for 2 weeks.

KS1767 cells [5] = format: cell-based; conditions: for CC50: KS 1767 cells, read-out: LC50 at 30 min; for toxicity to mammalian cultured cells compared with SGP: Table I cell types
Experimental: All cell lines were obtained commercially. The Kaposi's sarcoma-derived cell line KS1767 and the breast carcinoma cell line MDA-MB-435 have been described previously (see, for example, Herndier, et al. (1994) Aids 8, 575-581; Reisbach, et al. (1982) Anticancer Res. 2, 257-260; and Ellerby, et al. (1999) Nat. Med. 5, 1032-1038) and were cultured in 10% fetal bovine serum/Dulbecco's modified Eagle's medium, containing antibiotics.
as §2, §3

[6] = Cell viability LC50, CADMEC cells; format: cell-based, human; conditions: human
Experimental: as §2, §3

[7] = cited from earlier work; for ability to disrupt synthetic membranes: Matsumoto et al. 2001
[8] = test system: H358 lung carcinoma xenografts; assay: Anti-tumor activity, H358 lung carcinoma xenografts in nude mice; format: in vivo, nude/nude Balb/c mice
Source text: as §4, §1

[9] = Cell viability LC50, HPAEC cells; format: cell-based; conditions: human, HPAEC (Human Pulmonary Artery Endothelial Cells)
Experimental: as §2, §3

[10] = Cell viability LC50, cell line not given in Table I; format: cell-based; conditions: for CC50: cell line cell empty (row under KS 1767), read-out: LC50 at 30 min
Experimental: as §2, §3

[11] = Cell viability LC50, HUVEC cells; format: cell-based; conditions: human, HUVEC (Human Umbilical Cord Vascular Endothelial Cells)
Experimental: as §2, §3

[12] = test system: CADMEC = Cell Applications Dermal Microvessel Endothelial Cells; assay: Cell viability LC50, CADMEC cells; format: cell-based, human; conditions: read-out: LC50 at 30 min
Experimental: as §2, §3

Molecule: COc1cccc2c1C(=O)c1c(O)c3c(c(O)c1C2=O)C[C@@](O)(C(=O)CO)C[C@@H]3O[C@H]1C[C@H](N)[C@H](O)[C@H](C)O1 [doxorubicin, reference compound]
- effect on KS1767 cell viability (KS1767 cells [1]; 20 μg/well, 24 h, in the presence of matrigel): decreased cell viability
- effect on KS1767 cell layer (KS1767 cells [1]): damaged the cell layer

Molecule: CCO [ethanol, reference compound]
- effect on KS1767 cells (KS1767 cells [1]; in the presence of polymeric fibronectin (sFN)): induced massive cell death
- effect on KS1767 cell layer (KS1767 cells [1]): damaged the cell layer

Molecule: Ac-AAAAAAWAAAAGPNGLYLKKKLLKKLLKLLGNPGLKLYKKLLKKLLLKLGNPGLLKLYKKLLKKLLKLL-OH [SGP, small globular protein]
- tumor appearance ([2]; 100 μM): flattened and virtually disappeared
- histopathology of tumor xenografts ([2]; 100 μM, harvested at 8 weeks after treatment initiation): widespread cell death; also recorded: extensive apoptosis
- tumor appearance ([2]; 1 mM): flattened and virtually disappeared
- difference between average tumor volumes of 100 μM and 1 mM groups ([2]; 8 weeks): no difference
- histological analysis of the major organs ([2]; SGP-treated mice): no overt pathology
- time mice remained tumor-free after tumor implantation ([2]; before being euthanized for histological evaluation): up to 4 months
- tumor volume compared with PBS-treated controls ([2]; four weekly intratumoral treatments, 100 μM or 1 mM, 40 μl, measured at 8 weeks): significantly smaller; also recorded: smaller than controls
- primary tumor growth and metastases ([2]; mouse, in vivo): inhibited
- surgical examination of the tumor sites ([2]; mouse, in vivo): no sign of tumor cells
- CC50 at 30 min [3]: 5 µM
- tumor volume compared with PBS-treated tumors [4]: smaller than control PBS-treated tumors
- skin toxicity (normal skin): relatively non-toxic to normal skin
- effect on KS1767 cells (KS1767 cells [5]; 3 μM, 24 h): classic morphological signs of apoptosis
- effect on KS1767 cells (KS1767 cells [5]; 10 μM, within 60 s): extremely rapid non-necrotic, non-apoptotic cell death
- effect on KS1767 cells (KS1767 cells [5]; 10 μM, within 60 min): necrosis
- effect on KS1767 cells (KS1767 cells [5]; below 5 μM, over 24-hour period, confirmed by caspase-3 activation assay): induction of apoptosis
- concentration affecting tumor derived cells as well as normal cells (KS1767 cells [5]; cultured cells, tumor derived and normal): ~3 µM
- CC50 at 30 min [6]: 5 µM
- pore size (conductance) in synthetic bilayers ([7]; Lee et al. 1997): 14 pS
- tumor volume compared with PBS-treated tumors ([8]; H358 tumors, 9 weeks): smaller than control PBS-treated tumors
- tumor appearance ([8]; after 6 weekly treatments at 40 μl/week, FIG. 5C): have disappeared
- CC50 at 30 min [9]: 5 µM
- CC50 at 30 min ([10]; human): 4 µM
- effect on KS1767 cells (KS1767 cells [1]; 1 mM, in the presence of matrigel): remain unaffected
- effect on KS1767 cell viability (KS1767 cells [1]; 1 mM, in the presence of polymeric fibronectin (sFN)): ineffective; also recorded: remain unaffected
- effect on KS1767 cells (KS1767 cells [1]; 1 mM, without matrigel): decreases cell viability
- SGP activity in the presence of fibronectin alone (KS1767 cells [1]; fibronectin alone (not polymeric), control): did not prevent SGP activity
- CC50 at 30 min [11]: 7 µM

Molecule: DLSLARLATARLAI [negative control peptide, reference compound]
- effect on KS1767 cells (KS1767 cells [5]; 100 μM, 60 s): unaffected
- effect on KS1767 cells (KS1767 cells [5]; 100 μM, 24 h): unaffected
- effect on KS1767 cells (KS1767 cells [5]; 100 μM, after 60 min): unaffected

B1: SGP-E: SGP variant SEQ ID NO:3; lysines replaced by glutamic acids; negative control (peptide)
chain: AAAAAAWAAAAGNPGLELLKKLYKKLLELLGNPGLELLKKYLKKLLELLGNPGLLELLKKYLKKLLELL
- CC50 (KS1767 cells [5]): 30 µM
- toxicity to mammalian cultured cells compared with SGP (KS1767 cells [5]): substantially less toxic
- CC50 [12]: 30 µM
- ability to disrupt synthetic membranes [7]: diminished
- CC50 [10]: 30 µM

B2: SGP-L: SGP variant SEQ ID NO:4; central all alanine helix replaced by an all leucine helix; negative control (peptide)
chain: LLLLLLWLLLLGPNGLKLYKKLLKKLLKLLGNPGLKLYKKLLKKLLLKLGNPGLLKLYKKLLKKLLKLL
- CC50 (KS1767 cells [5]): 60 µM
- toxicity to mammalian cultured cells compared with SGP (KS1767 cells [5]): substantially less toxic
- CC50 [12]: 60 µM
- ability to disrupt synthetic membranes [7]: diminished
- CC50 [10]: 60 µM
